The source of these data is PMC9746828, “Small-molecule PROTAC mediates targeted protein degradation to treat STAT3-dependent epithelial cancer” (JCI Insight, 2022).

In general, Kd refers to a measure of binding affinity in units of concentration.

For the test, the target named is STAT3 (Homo sapiens, UniProt P40763). The experiment in a line: microscale thermophoresis (MST), recombinant human STAT3. In kind it is binding. In general terms: In MST a laser heats a spot of the sample, and binding alters the fluorescence response.
STAT3, sequence (P40763 2-770): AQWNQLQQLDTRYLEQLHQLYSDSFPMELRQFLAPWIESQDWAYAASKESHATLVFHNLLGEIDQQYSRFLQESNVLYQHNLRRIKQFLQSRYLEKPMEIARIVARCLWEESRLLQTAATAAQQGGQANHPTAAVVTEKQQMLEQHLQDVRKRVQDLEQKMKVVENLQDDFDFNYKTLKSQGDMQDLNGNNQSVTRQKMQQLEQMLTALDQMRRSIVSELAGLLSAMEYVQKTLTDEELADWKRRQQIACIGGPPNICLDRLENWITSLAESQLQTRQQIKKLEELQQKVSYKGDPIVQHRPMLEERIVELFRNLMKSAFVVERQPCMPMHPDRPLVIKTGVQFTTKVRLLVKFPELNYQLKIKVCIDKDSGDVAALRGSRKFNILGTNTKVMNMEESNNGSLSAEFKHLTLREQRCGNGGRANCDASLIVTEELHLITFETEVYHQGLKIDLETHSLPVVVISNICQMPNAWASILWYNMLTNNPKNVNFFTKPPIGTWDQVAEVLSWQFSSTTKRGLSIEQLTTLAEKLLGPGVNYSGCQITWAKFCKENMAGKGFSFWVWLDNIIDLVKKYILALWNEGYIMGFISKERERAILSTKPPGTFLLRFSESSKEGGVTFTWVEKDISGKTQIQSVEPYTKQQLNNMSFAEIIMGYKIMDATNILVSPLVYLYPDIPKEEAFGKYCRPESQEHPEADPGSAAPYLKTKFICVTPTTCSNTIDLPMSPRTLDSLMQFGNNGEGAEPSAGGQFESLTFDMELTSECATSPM

Structures are written as SMILES.

Turning to `CC(=O)O[C@@H]1C[C@H](O)[C@@]23CO[C@@H](O)[C@]1(C)[C@@H]2C[C@@H](O)[C@]1(C)[C@@H]3C(=O)[C@H](OC(C)=O)[C@@]2(C)[C@H](c3ccoc3)C[C@H]3O[C@]321` [TSN, toosendanin], the Kd amounted to 0.296 µM.
